This assay addresses T1, β3 adrenergic receptor (β3AR-cc3.1 chimera) (Homo sapiens, UniProt P13945, E36A/M86V/I125V/E126W/Y224A/F341M/Y346L).
T1 construct: gene ADRB3; Ala2 to Leu368 lacking Pro3 to Thr27, with Thermus thermophilus SRS antiparallel coiled coil cc3.1 inserted between Ala231 and Glu286 (replacing ICL3); N-terminal FLAG and C-terminal TwinStrep tags
The experiment in a line: radioligand saturation binding (SPA) on membranes of HEK-293S-GnTI- cells expressing β3AR-cc3.[…].

SMILES strings stand for the structures.

T1 sequence (P13945 2-368 E36A/M86V/I125V/E126W/Y224A/F341M/Y346L): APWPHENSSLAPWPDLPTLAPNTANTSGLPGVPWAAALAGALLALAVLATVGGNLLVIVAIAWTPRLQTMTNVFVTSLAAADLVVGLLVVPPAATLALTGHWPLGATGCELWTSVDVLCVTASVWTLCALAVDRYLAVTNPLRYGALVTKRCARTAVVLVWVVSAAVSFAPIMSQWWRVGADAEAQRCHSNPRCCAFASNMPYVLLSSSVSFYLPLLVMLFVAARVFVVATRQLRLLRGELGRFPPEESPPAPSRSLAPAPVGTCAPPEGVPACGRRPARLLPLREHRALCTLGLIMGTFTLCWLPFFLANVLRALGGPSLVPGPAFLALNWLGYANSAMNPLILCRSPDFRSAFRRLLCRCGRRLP

`CCCc1ccccc1OC[C@@H](O)CNC(C)C` [[3H]-dihydroalprenolol] yielded a dissociation constant (Kd) of 150 nM.

Broadly, the Kd is the constant that tells how readily two partners part at equilibrium.

The values above are taken from PMC10287670, “A coiled-coil-based design strategy for the thermostabilization of G-protein-coupled receptors” (Scientific Reports, 2023).
